Source: patent US20040198731A1, “Aminoalkyl-substituted aromatic bicyclic compounds, methods for their preparation and their use as pharmaceuticals” (Aventis Pharma Deutschland GmbH, priority 2001, published 2004)

Key:
female NMRI mice = experiment: Anorectic action: cumulative milk consumption after oral administration; assay type: in vivo; details: for cumulative milk consumption by treated animals: feed removed 17 h, monitored for 7 hours, N=5; for Reduction in cumulative milk consumption as % of the control: versus vehicle-treated control animals
Procedure: The anorectic action was tested on female NMRI mice. After removal of feed for 17 hours, the preparation to be tested was administered by gavage. The animals were housed singly and, with free access to drinking water, they were offered evaporated milk 30 minutes after administration of the preparation. The consumption of evaporated milk was determined and the general behavior of the animals were monitored every half an hour for 7 hours. The measured milk consumption was compared to that of vehicle-treated control animals.

human MCH receptor = target: T1, human MCH receptor (Homo sapiens, UniProt Q99705); experiment: Functional measurement of cellular calcium flow (FLIPR) in recombinant HEK293 cells expressing human MCH receptor; assay type: cell-based; details: cellular assay, calcium flow after addition of agonist (MCH), HEK293 (PEAK Stable Cells) expressing human MCH receptor
T1 construct: expressed in transfected cells
T1 sequence (Q99705 whole entry): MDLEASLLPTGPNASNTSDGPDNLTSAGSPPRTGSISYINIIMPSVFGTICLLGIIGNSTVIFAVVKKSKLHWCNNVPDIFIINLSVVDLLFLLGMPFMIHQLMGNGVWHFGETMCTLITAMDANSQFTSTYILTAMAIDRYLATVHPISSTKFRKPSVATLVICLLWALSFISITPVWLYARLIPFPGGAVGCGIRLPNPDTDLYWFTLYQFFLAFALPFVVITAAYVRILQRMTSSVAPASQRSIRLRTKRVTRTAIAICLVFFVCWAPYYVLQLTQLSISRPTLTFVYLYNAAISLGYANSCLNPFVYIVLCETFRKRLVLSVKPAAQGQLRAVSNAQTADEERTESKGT
From the text: In two simultaneously published articles in Nature (Nature, 400:261-264, 1999; Nature, 400:265-269, 1999, see enclosure), two groups separately described a highly specific receptor for melanin-concentrating hormone (MCH). MCH takes over important functions in the control of food intake. Compounds acting on the MCH receptor therefore have anorectic action and are suitable for the treatment of obesity. The test for anorectic action of the inventive compounds of formula I was therefore carried out as follows.
Functional measurements for determination of IC50
Cloning of the cDNA for human MCH receptor, preparation of a recombinant HEK293 cell line expressing human MCH receptor and functional measurements with said recombinant cell line were carried out according to the description by Audinot et al. (J. Biol. Chem., 276, 13554-13562, 2001). In contrast to the reference, however, plasmid pEAK8 from EDGE Biosystems (USA) was used for constructing the expression vector. A transformed HEK cell line named “PEAK Stable Cells” (likewise from EDGE Biosystems) served as host for transfection. The functional measurements of cellular calcium flow, after addition of agonists (MCH), in the presence of the ligand of the invention was carried out with the aid of the FLIPR instrument from Molecular Devices (USA), using the manufacturer's protocols.

| SMILES | IC50 (human MCH receptor) | also measured |
| --- | --- | --- |
| CN(C)CCn1cnc2cc(NC(=O)Nc3ccc(Oc4ccccc4)cc3)ccc21 [Example 4, 1-[1-(2-Dimethylaminoethyl)-1H-benzoimidazol-5-yl]-3-(4-phenoxyphenyl)urea] | 130 nM | cumulative milk consumption by treated animals (female NMRI mice; oral dose 10 mg/kg by gavage): 5/2.74 mL; Reduction in cumulative milk consumption as % of the control (female NMRI mice; oral dose 10 mg/kg by gavage): 38% |
| CC1CCCN(c2ccc(NC(=O)Nc3ccc4c(ccn4CCN(C)C)c3)cc2)C1 (centres unmarked) [Example 29, 1-[1-(2-Di-methylaminoethyl)-1H-in-dol-5-yl]-3-[4-(3-methyl-piperidin-1-yl)phe-nyl]urea] | 2910 nM |  |
| CN(C)CCn1ccc2cc(NC(=O)Nc3ccc(N4CCSCC4)cc3)ccc21 [Example 26, 1-[1-(2-Di-methylaminoethyl)-1H-in-dol-5-yl]-3-(4-thio-morpholin-4-yl-phe-nyl)urea] | 920 nM |  |
| CN(C)CCn1ccc2cc(NC(=O)Nc3ccc(Oc4ccccc4)cc3)ccc21 [Example 1, 1-[1-(2-Dimethylaminoethyl)-1H-indol-5-yl]-3-(4-phenoxyphenyl)urea] | 150 nM | cumulative milk consumption by treated animals (female NMRI mice; oral dose 30 mg/kg by gavage): 5/2.28 mL; Reduction in cumulative milk consumption as % of the control (female NMRI mice; oral dose 30 mg/kg by gavage): 30% |
| CC1CCN(c2ccc(NC(=O)Nc3ccc4c(ccn4CCN(C)C)c3)cc2)CC1 [Example 33, 1-[1-(2-Di-methylaminoethyl)-1H-in-dol-5-yl]-3-[4-(4-methyl-piperidin-1-yl)phe-nyl]urea] | 1240 nM |  |
| Cc1nc2cc(NC(=O)Nc3ccc(OC(C)C)cc3)ccc2n1CCN1CCCCC1 [Example 7, 1-(4-Isopropoxyphenyl)-3-[2-methyl-1-(2-piperidin-1-ylethyl)-1H-benzoimidazol-5-yl]urea] | 450 nM |  |
| Cc1nc2cc(NC(=O)Nc3ccc(Oc4ccccc4)cc3)ccc2n1CCN1CCCCC1 [Example 15, 1-[2-Methyl-1-(2-piperidin-1-ylethyl)-1H-benzoimidazol-5-yl]-3-(4-phenoxyphenyl) urea] | 180 nM |  |

Further lines, with some results ahead:

| IC50 (human MCH receptor) | SMILES | also measured |
| --- | --- | --- |
| 200 nM | CN(C)CCn1ccc2cc(NC(=O)Nc3ccc(Oc4ccccc4)nc3)ccc21 [Example 106, 1-[1-(2-Di-methylaminoethyl)-1H-in-dol-5-yl]-3-(6-phenoxy-pyridin-3-yl)urea] |  |
| 2750 nM | CN(C)CCn1ccc2cc(NC(=O)Nc3ccc(-c4ccccc4)cc3)ccc21 [Example 78, 1-Biphenyl-4-yl-3-[1-(2-di-methylaminoethyl)-1H-in-dol-5-yl]urea] |  |
| 4250 nM | COc1ccccc1Oc1ccc(NC(=O)Nc2ccc3c(ccn3CCN(C)C)c2)cc1 [Example 76] |  |
